These results are taken from ChEMBL document CHEMBL1201862, “PubChem BioAssay data set” (2004).

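Test compounds were applied to cells in 96-well plates for 48 hours at 5 doses. GI50: concentration for 50% inhibition of growth.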 Activity calls are given as the source filed them. Cut-off read from the data, not from the text of the source: active = GI50 up to about 1.1 µM and inactive = higher.

A word on the GI50: it is the concentration that inhibits growth by half.

Assay in all cases: DTP human tumour cell line panel, 48 h
The test system of experiment [1] is OVCAR-4.
The test system of experiment [2] is SN12C.
For experiment [3], the system named is U-251.
For experiment [4], the system named is TK-10.
Experiment [5] concerns SNB-19.
Experiment [6] deals with MDA-N.
Experiment [7] deals with SK-OV-3.
For experiment [8], the system named is Malme-3M.
The subject of experiment [9] is NCI-H460.
Experiment [10] relates to NCI-H226.
For experiment [11], the system named is HOP-92.
The test system of experiment [12] is RPMI-8226.
Experiment [13] deals with OVCAR-3.
Experiment [14] relates to HL-60.
Experiment [15] relates to DU-145.
For experiment [16], the system named is Hs-578T.
Experiment [17] deals with SNB-75.
Experiment [18] deals with BT-549.
Experiment [19] deals with UACC-257.

Take `C[C@]12CC[C@H](O)C[C@@H]1CC[C@@H]1[C@@H]2CC[C@]2(C)[C@@H](C3=CC(=O)OC3)CC[C@]12O`: the GI50 is 2.08 µM (inactive) in experiment [1]; 0.964 µM (active) in [2]; 3.73 µM (inactive) in experiment [3]; 4 µM (inactive) in experiment [4]; 4.95 µM (inactive) in experiment [5]; 2.02 µM (inactive) in experiment [6]. The GI50 in [7] was 3.21 µM (inactive); in experiment [8], 2.16 µM (inactive); in experiment [9], 0.673 µM (active); in experiment [10] it was 11.2 µM (inactive); in [11] it was 5.42 µM (inactive); in experiment [12], 4.21 µM (inactive). Also, the GI50 is 3.12 µM (inactive) in experiment [13]; 2.88 µM (inactive) in [14]; 1.49 µM (inactive) in experiment [15]; 4.21 µM (inactive) in experiment [16]; 3.85 µM (inactive) in experiment [17]; 1.88 µM (inactive) in experiment [18]. For the same molecule, the GI50 in experiment [19] was 4.03 µM (inactive).
On to `OC(Cc1cccnc1)(c1ccccc1)c1ccccc1`, for which the GI50 in [1] is > 100 µM (inactive); in experiment [2], > 100 µM (inactive); in experiment [3], > 100 µM (inactive); in [4] it was > 100 µM (inactive); in [5], > 100 µM (inactive); in experiment [6] it was 47.2 µM (inactive). Further, the GI50 in experiment [7] was > 100 µM (inactive); in experiment [8] it was > 100 µM (inactive); in experiment [9] it was > 100 µM (inactive); in experiment [10], > 100 µM (inactive); in experiment [11] it was > 100 µM (inactive); in [12], 42.9 µM (inactive). Moreover, the GI50 in [13] was > 100 µM (inactive); in experiment [14], 55.5 µM (inactive); in [15], > 100 µM (inactive); in [16] it was > 100 µM (inactive); in experiment [17], > 100 µM (inactive); in experiment [18] it was 73.6 µM (inactive). Also, the GI50 in [19] was 41.3 µM (inactive).
As to `CSc1nnnc2ccccc12`, the GI50 in experiment [1], in [2], in [3], in [4], in experiment [5] and in experiment [6] was > 100 µM (inactive) throughout. Besides, the GI50 in [7], in experiment [8], in [9], in experiment [10], in experiment [11] and in experiment [12] was > 100 µM (inactive) in each case. Further, the GI50 in experiment [13], in experiment [14], in experiment [15], in [16], in [17] and in experiment [18] was > 100 µM (inactive) each time. Also, the GI50 in [19] is > 100 µM (inactive).
On to `Cn1cc(C2NC(=O)c3ccccc3N2)c2ccccc21` (stereo not given), for which the concentration for 50% growth inhibition (GI50) in experiment [1] is 0.306 µM (active); in experiment [2] it was 1.63 µM (inactive); in [3], 0.889 µM (active); in experiment [4], 2.94 µM (inactive); in [5] it was 1.55 µM (inactive); in experiment [6], 0.0632 µM (active). The GI50 was 0.35 µM (active) in experiment [7]; 0.316 µM (active) in experiment [8]; 1.06 µM (active) in [9]; 0.746 µM (active) in experiment [10]; 22.3 µM (inactive) in experiment [11]; 0.249 µM (active) in experiment [12]. Further, the 50% growth inhibitory concentration (GI50) was 0.489 µM (active) in experiment [13]; 0.12 µM (active) in [14]; 0.887 µM (active) in experiment [15]; 0.649 µM (active) in experiment [16]; 0.873 µM (active) in experiment [17]; > 100 µM (inactive) in experiment [18]. In addition, in [19], the GI50 was 5.6 µM (inactive).
`O=[N+]([O-])c1ccc2nc(-c3ccccn3)c(-c3ccccn3)nc2c1`: the GI50 in [1] was > 100 µM (inactive); in [2] it was > 100 µM (inactive); in experiment [3] it was > 100 µM (inactive); in experiment [4], > 100 µM (inactive); in experiment [5], > 100 µM (inactive); in experiment [6] it was 45.4 µM (inactive). Moreover, the GI50 in experiment [7] is > 100 µM (inactive); in experiment [8] it was 61.2 µM (inactive); in [9], 45.7 µM (inactive); in experiment [10], > 100 µM (inactive); in experiment [11] it was > 100 µM (inactive); in experiment [12], > 100 µM (inactive). Further, the GI50 is 29.4 µM (inactive) in [13]; 28 µM (inactive) in experiment [14]; > 100 µM (inactive) in [15]; > 100 µM (inactive) in experiment [16]; > 100 µM (inactive) in experiment [17]; > 100 µM (inactive) in [18]. Moreover, in experiment [19], the GI50 is 98.4 µM (inactive).
For the molecule `CC(=O)OC(CC(C)C)P1(=O)N(CC(C)(C)C)[C@@H]2CCCC[C@H]2N1CC(C)(C)C` (stereo not given in full), the GI50 in [1] was 9.42 µM (inactive); in [2], 10.7 µM (inactive); in [3], 7.08 µM (inactive); in experiment [4] it was 11.7 µM (inactive); in experiment [5], 9.29 µM (inactive); in experiment [6], 8.26 µM (inactive). Also, the GI50 is 15.1 µM (inactive) in experiment [7]; 9.33 µM (inactive) in experiment [8]; 8.57 µM (inactive) in [9]; 10.4 µM (inactive) in experiment [10]; 2.58 µM (inactive) in [11]; 4.01 µM (inactive) in [12]. Further, the GI50 in experiment [13] was 9.23 µM (inactive); in experiment [14], 5.71 µM (inactive); in experiment [15], 15.3 µM (inactive); in experiment [16], 9.75 µM (inactive); in [17], 7.55 µM (inactive); in experiment [18] it was 15.5 µM (inactive). Moreover, the GI50 in [19] was 8.41 µM (inactive).
For `N#Cc1c(N)n(-c2nc3ccccc3s2)c(=O)c2cc([N+](=O)[O-])ccc12`, the GI50 in experiment [1] is 24.3 µM (inactive); in experiment [2] it was 23.1 µM (inactive); in experiment [3], 19.9 µM (inactive); in experiment [4], 23.6 µM (inactive); in experiment [5], 17.7 µM (inactive); in experiment [6], 25.9 µM (inactive). Besides, the GI50 in experiment [7] was 25.4 µM (inactive); in experiment [8], 18.7 µM (inactive); in [9], 6.32 µM (inactive); in experiment [10] it was 6.93 µM (inactive); in [11] it was 14.1 µM (inactive); in [12], 10.8 µM (inactive). Besides, the GI50 in [13] was 14.8 µM (inactive); in experiment [14], 7.74 µM (inactive); in [15] it was 25.6 µM (inactive); in [16], 9.16 µM (inactive); in experiment [17], 14.9 µM (inactive); in experiment [18], 21.2 µM (inactive). Also, the GI50 in [19] is 23.4 µM (inactive).
Consider `CCCCn1c(C)c2c(c1C)C(=O)N(CCN1CCN(c3ccccc3Cl)CC1)C2=O`, for which the GI50 was 51.2 µM (inactive) in experiment [1]; 26.7 µM (inactive) in experiment [2]; 36.5 µM (inactive) in experiment [3]; 43.5 µM (inactive) in experiment [4]; 92.3 µM (inactive) in [5]; 34.6 µM (inactive) in experiment [6]. Further, the GI50 is 21.6 µM (inactive) in [7]; 21 µM (inactive) in experiment [8]; 35.5 µM (inactive) in experiment [9]; 36.9 µM (inactive) in experiment [10]; 25.4 µM (inactive) in experiment [11]; 24.7 µM (inactive) in [12]. In addition, the GI50 was 50.7 µM (inactive) in experiment [13]; 22.1 µM (inactive) in experiment [14]; 36 µM (inactive) in [15]; > 100 µM (inactive) in [16]; 31.6 µM (inactive) in [17]; 17.3 µM (inactive) in experiment [18]. In addition, the GI50 in experiment [19] was 28.6 µM (inactive).
Consider `CCOP(=O)(OCC)C(Nc1cccc(F)c1)c1ccccc1` (stereo not given), for which the GI50 was 59.3 µM (inactive) in experiment [1]; 75.9 µM (inactive) in experiment [2]; 74.1 µM (inactive) in experiment [3]; > 100 µM (inactive) in [4]; > 100 µM (inactive) in experiment [5]; > 100 µM (inactive) in experiment [6]. The GI50 in [7] is > 100 µM (inactive); in experiment [8], 50.7 µM (inactive); in experiment [9] it was 43.9 µM (inactive); in experiment [10] it was 93.5 µM (inactive); in experiment [11] it was 32.7 µM (inactive); in experiment [12] it was 29.7 µM (inactive). For the same molecule, the GI50 was 60.5 µM (inactive) in [13]; 18.1 µM (inactive) in experiment [14]; > 100 µM (inactive) in [15]; 35.9 µM (inactive) in experiment [16]; 20.7 µM (inactive) in experiment [17]; > 100 µM (inactive) in experiment [18]. For the same molecule, the GI50 in experiment [19] was 45.1 µM (inactive).
As to `CSc1ccc2c(cc1=O)[C@@H](NC(=O)c1ccc([N+](=O)[O-])cc1)CCc1cc(O)c(O)c(O)c1-2`, the GI50 was 39.8 µM (inactive) in [1]; 21.6 µM (inactive) in [2]; 34.2 µM (inactive) in [3]; > 100 µM (inactive) in [4]; 18.4 µM (inactive) in experiment [5]; 22.4 µM (inactive) in experiment [6]. Besides, the GI50 was > 100 µM (inactive) in [7]; > 100 µM (inactive) in [8]; 40 µM (inactive) in experiment [9]; 46.5 µM (inactive) in [10]; > 100 µM (inactive) in experiment [11]; 40.3 µM (inactive) in [12]. In addition, the GI50 was 15.7 µM (inactive) in experiment [13]; 11.7 µM (inactive) in [14]; > 100 µM (inactive) in experiment [15]; 21.2 µM (inactive) in [16]; > 100 µM (inactive) in [17]; 60.3 µM (inactive) in experiment [18]. Besides, in [19], the GI50 was > 100 µM (inactive).
